Source: the supplement of paper PMC10307832

Legend:
Assay in all cases: relative viability (nuclei count vs DMSO), 5 days (fraction); higher = more cells survive
[1] = compound: CC[C@H](Nc1ncnc2[nH]cnc12)c1nc2cccc(F)c2c(=O)n1-c1ccccc1 [Idelalisib] + CS(=O)(=O)CCNCc1ccc(-c2ccc3ncnc(Nc4ccc(OCc5cccc(F)c5)c(Cl)c4)c3c2)o1 [Lapatinib] (partner 2 µM)
Method in brief: (§1)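 Each reported value is a median over duplicate plates. It expresses relative viability: treated-well nuclei count divided by vehicle-well nuclei count. Lung cancer cell lines in 1536-well plates were dosed by pin tool a day after seeding, alone with one drug or with a fixed anchor-drug dose plus five library-drug doses (not always all listed) in √10 steps, and nuclei were counted after 5 days.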

[2] = compound: Nc1nc2[nH]cc(CCc3ccc(C(=O)N[C@@H](CCC(=O)O)C(=O)O)cc3)c2c(=O)[nH]1 [Pemetrexed] + Cc1cc(Nc2cc(N3CCN(C)CC3)nc(Sc3ccc(NC(=O)C4CC4)cc3)n2)n[nH]1 [Tozasertib] (partner 0.1 µM)
Method in brief: as §1

[3] = compound: CC[C@H](Nc1ncnc2[nH]cnc12)c1nc2cccc(F)c2c(=O)n1-c1ccccc1 [Idelalisib] + O=C(c1cc(Cc2n[nH]c(=O)c3ccccc23)ccc1F)N1CCN(C(=O)C2CC2)CC1 [Olaparib] (partner 8 µM)
Method in brief: as §1

[4] = compound: Nc1nc2[nH]cc(CCc3ccc(C(=O)N[C@@H](CCC(=O)O)C(=O)O)cc3)c2c(=O)[nH]1 [Pemetrexed] + CCNC(=O)c1noc(-c2cc(C(C)C)c(O)cc2O)c1-c1ccc(CN2CCOCC2)cc1 [Luminespib] (partner 0.01 µM)
Method in brief: as §1

Cell Line | relative viability ([1]; first compound 0.04 µM) | relative viability ([1]; first compound 0.1265 µM) | relative viability ([1]; first compound 0.4 µM) | relative viability ([1]; first compound 1.265 µM) | relative viability ([1]; first compound 4 µM) | relative viability ([2]; first compound 0.002 µM) | relative viability ([2]; first compound 0.006325 µM) | relative viability ([2]; first compound 0.02 µM) | relative viability ([2]; first compound 0.06325 µM) | relative viability ([2]; first compound 0.2 µM) | relative viability ([3]; first compound 0.04 µM) | relative viability ([3]; first compound 0.1265 µM) | relative viability ([3]; first compound 0.4 µM) | relative viability ([3]; first compound 1.265 µM) | relative viability ([3]; first compound 4 µM) | relative viability ([4]; first compound 0.002 µM) | relative viability ([4]; first compound 0.006325 µM) | relative viability ([4]; first compound 0.02 µM) | relative viability ([4]; first compound 0.06325 µM) | relative viability ([4]; first compound 0.2 µM)
LOU-NH91 | 0.82 | 0.737 | 0.67 | 0.725 | 0.75 | 0.656 | 0.676 | 0.706 | 0.54 | 0.366 | 0.986 | 0.936 | 0.856 | 0.848 | 0.912 | 0.399 | 0.318 | 0.374 | 0.298 | 0.315
LU99A | 0.923 | 0.912 | 0.862 | 1.14 | 1.04 | 0.259 | 0.325 | 0.338 | 0.272 | 0.249 | 0.251 | 0.25 | 0.274 | 0.206 | 0.241 | 0.264 | 0.233 | 0.318 | 0.261 | 0.19
LXF-289 | 0.945 | 0.901 | 0.906 | 0.96 | 0.943 | 0.165 | 0.19 | 0.194 | 0.163 | 0.183 | 1.13 | 1.07 | 1.02 | 1.06 | 1.04 | 0.687 | 0.648 | 0.731 | 0.639 | 0.651
NCI-H23 | 1.04 | 1.06 | 0.872 | 1.08 | 0.893 | 0.311 | 0.36 | 0.514 | 0.347 | 0.395 | 0.286 | 0.289 | 0.336 | 0.29 | 0.307 | 0.216 | 0.202 | 0.22 | 0.201 | 0.211
NCI-H322M | 0.612 | 0.62 | 0.521 | 0.53 | 0.502 | 0.513 | 0.505 | 0.486 | 0.504 | 0.452 | 0.652 | 0.813 | 0.781 | 0.747 | 0.77 | 0.987 | 0.767 | 0.853 | 0.84 | 0.752
NCI-H358 | 0.468 | 0.469 | 0.37 | 0.488 | 0.498 | 0.116 | 0.141 | 0.108 | 0.102 | 0.0813 | 0.562 | 0.586 | 0.522 | 0.606 | 0.516 | 0.268 | 0.368 | 0.227 | 0.367 | 0.146
NCI-H460 | 1.1 | 1.2 | 0.932 | 1.01 | 1.02 | 0.108 | 0.48 | 0.511 | 0.272 | 0.0837 | 0.491 | 0.466 | 0.461 | 0.454 | 0.472 | 0.0265 | 0.0449 | 0.0346 | 0.0259 | 0.0265
NCI-H520 | 0.776 | 0.999 | 0.717 | 0.923 | 0.684 | 0.42 | 0.475 | 0.447 | 0.412 | 0.45 | 0.34 | 0.364 | 0.276 | 0.302 | 0.269 | 0.215 | 0.234 | 0.223 | 0.261 | 0.2
NCI-H596 | 1.04 | 1.13 | 0.895 | 1.16 | 0.934 | 0.873 | 0.858 | 0.887 | 0.754 | 0.491 | 0.662 | 0.667 | 0.707 | 0.647 | 0.675 | 0.97 | 1.01 | 1.14 | 0.945 | 0.679
NCI-H647 | 1.13 | 1.27 | 0.834 | 0.95 | 0.546 | 0.309 | 0.246 | 0.297 | 0.208 | 0.128 | 0.623 | 0.602 | 0.489 | 0.614 | 0.281 | 0.21 | 0.189 | 0.257 | 0.17 | 0.131
NCI-H650 | 1.17 | 1.07 | 0.944 | 0.924 | 0.877 | 0.666 | 0.691 | 0.826 | 0.734 | 0.74 | 0.414 | 0.441 | 0.362 | 0.334 | 0.37 | 0.751 | 0.733 | 0.732 | 0.705 | 0.842
NCI-H661 | 0.44 | 0.433 | 0.39 | 0.367 | 0.391 | 0.368 | 0.325 | 0.349 | 0.348 | 0.351 | 0.821 | 0.783 | 0.738 | 0.888 | 0.764 | 0.958 | 0.882 | 0.934 | 0.884 | 0.85
NCI-H727 | 0.814 | 1.09 | 0.751 | 1.21 | 0.719 | 0.6 | 0.584 | 0.498 | 0.738 | 0.61 | 0.813 | 0.624 | 0.688 | 0.779 | 0.836 | – | 0.255 | 0.346 | 0.689 | 0.506
NCI-H838 | 0.994 | 1.12 | 0.707 | 0.938 | 0.767 | 0.229 | 0.276 | 0.295 | 0.265 | 0.203 | 0.779 | 0.794 | 0.745 | 0.775 | 0.564 | 0.234 | 0.246 | 0.309 | 0.197 | 0.156
NCI-H1355 | 1.06 | 1.1 | 0.751 | 0.972 | 0.888 | 0.532 | 0.516 | 0.554 | 0.632 | 0.586 | 0.78 | 0.694 | 0.632 | 0.776 | 0.673 | 0.737 | 0.662 | 0.656 | 0.693 | 0.715
NCI-H1395 | 1.01 | 0.948 | 0.993 | 0.933 | 0.758 | 0.783 | 0.721 | 0.826 | 0.717 | 0.79 | 0.456 | 0.455 | 0.445 | 0.43 | 0.41 | 0.8 | 0.718 | 0.678 | 0.528 | 0.758
